Entries after “also recorded” stand apart in the source; their conditions may differ.
Tests used:
[1] = test system: cultured rabbit trigeminal nerve cells; experiment: Promoting effect on neuritogenesis in cultured rabbit trigeminal nerve cell; type: cell-based; conditions: compound 1 final concentration 1 μM, 48 hr of culture
Text: Japanese White rabbits (2-3 days old) purchased from KITAYAMA LABES Co., Ltd. were used.
The trigeminal nerve cell was isolated according to the report of Chan et al. (Chan, Kuan Y. and Haschke, Richard H., Exp. Eye Res., 41: 687-699, 1985). To be specific, under ether anesthesia, after cardiac perfusion with saline, the trigeminal ganglia was removed, dispersed using a nerve dispersion solution (SUMITOMO BAKELITE Co., Ltd.) to give a cell suspension. […]
After 48 hr of culture, the cells were fixed with 4% paraformaldehyde at room temperature for 2 hr, and nerve cell body and neurite were fluorescence stained using an anti-neurofilament 200 antibody (Sigma) that specifically recognizes neurofilaments which are intermediate filaments specific to a nerve cell and a fluorescent secondary antibody reactive therewith.
The stained cells were imported as images from a fluorescence microscope into a computer and the cell body diameter and neurite length of the imported cell images were measured using an image analysis software (Image-Pro Plus ver. 4.0, Planetron. Inc.). The cells of 3 wells were measured for each of the compound 1 addition group and the control group. The cells having a neurite with a length of not less than twice the diameter of a cell body were taken as neuritogenetic cells, and the percentage (%) of the neuritogenetic cells in the total cells measured was calculated.

[2] = test system: rabbit corneal hyposensitivity model; experiment: Improving effect on rabbit corneal hyposensitivity using microkeratome (corneal flap model, Cochet-Bonnet corneal sensitivity meter); type: in vivo; conditions: 0.01% instillation; for recovery of corneal sensitivity relative to control group: 50 μL 4 times a day for 1 week or 2 weeks after corneal flap preparation, measured weekly 1 to 8 weeks postsurgery, hydrochloride
Experimental: Japanese white rabbits (body weight 2.5-3.0 kg) purchased from Japan SLC were used. The animals were housed separately in cages in a room set to room temperature 23±3° C., humidity 55±10%, 12 hr light cycle (light on 8 am, light off on 8 pm) from arrival to the end of the test. A limited amount of a solid feed (Labo R-stock, Nosan Corporation, 100 g for one day) was given to the animals and a free access to tap water was allowed.
As the test substance, compound 1 was used. Compound 1 was dissolved in the following base solution to 0.01% and administered by instillation. The base solution was administered to the control group by instillation.
Prior to the start of the test, the anterior segment of eye of the animal was visually observed and cornea stained marks by fluorescein was observed, and the rabbits showing no abnormality in them were selected. Using Cochet-Bonnet corneal sensitivity meter (manufactured by LUNEAU), the initial value of corneal sensitivity was measured.
Intramuscular injection (0.9 mL/kg) of a Celactal (2% xylazine):Ketalar (5% ketamine)=0.5:1 mixture was given to the animals to perform systemic anesthesia, and the eyeball was sufficiently exposed. Using microkeratome (MK2000, Nidek) attached a rabbit eye adaptor inside a suction ring, a corneal flap (diameter 8.5 mm) was prepared with a 130 μm thick blade (Arbelaez M C. et al., J. Refract Surg., 2002 May-Jun. 18 (3 Suppl): S357-60). The corneal flap was certainly put back into position under a microscope, and the animal was woken up from the anesthesia while observing the animal to prevent displacement of the flap. […]
The corneal sensitivity was measured using a Cochet-Bonnet corneal sensitivity meter once every week from one to eight weeks after the surgery. […]
For statistical analysis, a parametric Dunnett multiple comparisons test (one sided) (SAS preclinical package; Version 5.0, SAS Institute Japan) was used and a risk of less than 5% was evaluated as significant.

## C[C@@H](N)c1ccc(C(=O)Nc2ccnc3[nH]ccc23)cc1.Cl [compound 1, (R)-(+)-N-(1H-pyrrolo[2,3-b]pyridin-4-yl)-4-(1-aminoethyl)benzamide 1 hydrochloride]
[1]; anti-neurofilament 200 staining, hydrochloride
  neuritogenesis of cultured trigeminal nerve cells (fluorescence microscope observation): many cells having a long-extended neurite were observed; also recorded: promotes neuritogenesis
[1]; N=3, mean, control group 24%, p<0.001 vs control
  percentage (%) of the neuritogenetic cells in the total cells measured: 54.6%
[2]; 1-week administration group, at 5 week postsurgery, Dunnett test, p<0.05
  corneal sensitivity compared to control group (statistical analysis): significantly high
[2]
  recovery of corneal sensitivity relative to control group: has an effect of promoting the recovery of corneal hyposensitivity
[2]; listed as test substance
  recovery of corneal sensitivity relative to control group: better recovery of corneal sensitivity than in the control group

Reference: patent publication US7956072B2, “Agent for repairing corneal sensitivity containing amide compound” (Senju Pharmaceutical Co., Ltd., priority 2004, dated 2011)
